Patent US10076504B2, “Glucagon antagonists” (Ligand Pharmaceuticals, Inc., priority 2014, dated 2018)

Columns and labels:
[1] = Liver microsome incubation; assay type: in vitro ADME, dog
Protocol: (§1) The compound of Formula IIIa (below) was incubated for 60 minutes at 37 C with mouse, rat, dog, monkey, and human liver microsomes.
(§2) Concentrations of IIIa were measured at multiple time points by LC-MS/MS. IIIa was stable with predicted clearance well below hepatic blood flow in all species.

[2] = Liver microsome incubation, statement for all species; assay type: in vitro ADME; conditions: predicted clearance well below hepatic blood flow
Protocol: as §1, §2

[3] = system: fasting plasma glucose; assay: Single ascending dose study, pharmacodynamics; assay type: in vivo, human
Protocol: Oral doses of IIIa were administered to normal healthy volunteers (NHV) and subjects with type 2 diabetes mellitus (T2DM). A single center, randomized, double-blind, placebo-controlled single ascending dose study was done in both NHV (n=48) and T2DM subjects (n=8). Dose escalation only occurred after review of safety and tolerability data from previous dose levels (n=8/cohort; 2-placebo & 6-IIIa). Dosing of the T2DM cohort was initiated only after the equivalent dose had been administered to NHV and safety data had been reviewed. All subjects were administered IIIa in the morning after an overnight fast with the exception of the NHV in the 40 mg cohort. NHV subjects in the 40 mg cohort initially received IIIa in a fasted state. Following a 3 week washout period, IIIa was readministered after breakfast at 40 mg to determine the effects of food consumption on pharmacokinetics.
Formula IIIa was well-absorbed after oral administration; peak plasma concentrations were reached approximately 5 to 8 hours post dose with a long elimination half-life of about 50 hours. Such data supports, for example, once-daily dosing of Formula III. The effects of Formula IIIa on fasting and post-prandial plasma glucose, glucagon, insulin, and glucagon-like peptide-1 (GLP-1) were evaluated in NH and T2DM subjects, and a meal tolerance test (MTT) and continuous glucose monitoring (CGM) were performed in T2DM subjects. […] The decrease in glucose was most obvious in the fasting plasma glucose (FPG) levels 24 and 48 hours post-dose. The magnitude of decrease in FPG was greater in subjects with T2DM than in NH subjects.

[4] = T2DM subjects, single dose 40 mg

1st-order kinetic rate constant ([1]; Dog liver microsomes, 60 minutes at 37 C): 0.0016 min⁻¹
Predicted systemic clearance ([1]; Dog, from liver microsomes): 4.01 mL/min/kg body weight
stability in liver microsomes [2]: stable
Compound: Cc1cc(C)c(-c2ccc(NC(=O)[C@H](Cc3ccc(C(=O)NCCS(=O)(=O)O)cc3)c3ccc(-c4ccc(C(C)(C)C)cc4)cc3)cc2)c(C)c1 [IIIa]
glucose levels ([3]; NH subjects): small decreases in glucose levels approximating dose-dependency
mean glucagon and total GLP-1 levels ([3]; NH subjects, dose-dependent up to 240 mg, 24 to 96 hours post-dose): increased
glucose levels ([3]; T2DM subjects): lowered glucose levels
duration of glucose suppression ([3]; T2DM subjects, single dose): continued through 48 hours
lowering of fasting plasma glucose [3, 4]: 50 mg/dL
lowering of fasting plasma glucose, placebo adjusted [3, 4]: 57 mg/dL
changes in active GLP-1 or insulin levels ([3]; all dose groups, single dose): did not generate a consistent trend
duration of glucose suppression ([3]; normal healthy volunteers): continued through 48 hours
fasting plasma glucose ([3]; normal healthy volunteers, single dose 2 to 480 mg): lowered fasting plasma glucose
24-hour glucose AUC (continuous glucose monitoring) ([3]; subjects with T2DM): reduction
mean glucagon and total GLP-1 levels ([3]; subjects with T2DM, compared to placebo, 24 to 72 hours post-dose): increased compared to placebo treatment
